A short description of the series: Solubility of fluorescein in COH102 and COH206 buffer. Format: physicochemical. The conditions noted are these: 0.1% in COH102 and COH206 buffer. Here is the method:
General Procedures. Transient colorants were subjected to irradiation or other sterilization methods to determine if they would be stable. Standard chemical mixing, measuring, and analytical methods were utilized. Solubilities for effective amounts of transient colorants mixed in starting materials (and in the final compositions) were verified by routine mixing followed by analytical procedures.
Fluorescein was tested at 0.1% in COH102 and COH206 buffer and found to be soluble. To test in COSEAL®, one-fifth volume of COH102 buffer was replaced with 0.1% to 1.0% fluorescein in COH102 buffer, and the PEGs, COH102, and COH206 were added and dissolved. The fluorescence was noted to go away upon dissolving the mixed PEGs, and the color changed to a light yellow. However, when the solution was sprayed with COH206 buffer to make the reaction product COSEAL®, the fluorescence returned. The final fluorescein concentration was 0.01% to 0.1% by weight of the final composition.

In the case of `O=C1OC2(c3ccc(O)cc3Oc3cc(O)ccc32)c2ccccc21` [Fluorescein, fluorescein], the solubility result was “soluble”.

The values above are taken from patent US7273896B2, “Compositions and methods of using a transient colorant” (Angiotech Pharmaceuticals (US), Inc., priority 2003, dated 2007).
